Experimental data reported in patent US10570184B2, “GLP-1/glucagon receptor co-agonists for medical use” (Novo Nordisk A/S, priority 2014, dated 2020).
Starred links: 1 amine or outer side, 2 acyl side, 3 side chain; linkers in the order of their positions; H or OH if unused. Non-standard residues stand in square brackets, D forms with d. Residues, ends and D or L forms follow the SMILES beside them. Groups on a side chain read outwards from the residue. *: point of attachment. C18 diacid = O=C(O)CCCCCCCCCCCCCCCCC(=O)*; γGlu = O=C(O)[C@H](CCC(=O)[*:2])N[*:1]; Ac4c = NC1(C(=O)O)CCC1; AEEA = NCCOCCOCC(=O)O

Molecular target: T1, human GLP-1 receptor (Homo sapiens, UniProt P43220)
T1 construct: expressed in transfected cells; host or cells: membranes of BHK cells (parent BHKTS13), clone FCW467-12A
T1 sequence (P43220 24-463): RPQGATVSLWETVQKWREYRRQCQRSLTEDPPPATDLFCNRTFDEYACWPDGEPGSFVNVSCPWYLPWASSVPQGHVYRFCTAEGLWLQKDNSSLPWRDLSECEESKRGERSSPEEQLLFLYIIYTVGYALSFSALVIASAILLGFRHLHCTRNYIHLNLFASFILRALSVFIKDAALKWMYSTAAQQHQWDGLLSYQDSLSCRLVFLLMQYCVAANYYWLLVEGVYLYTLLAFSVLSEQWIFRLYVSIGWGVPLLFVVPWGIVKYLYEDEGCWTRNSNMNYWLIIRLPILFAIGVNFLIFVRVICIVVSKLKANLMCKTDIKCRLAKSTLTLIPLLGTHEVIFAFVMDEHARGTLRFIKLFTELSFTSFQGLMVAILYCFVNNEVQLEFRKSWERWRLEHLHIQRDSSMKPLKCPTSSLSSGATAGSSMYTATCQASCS
Test: Assay (II)(a) GLP-1 receptor binding, 125I-GLP-1 displacement SPA on BHK membranes
Settings: without presence of serum albumin; read-out: GLP-1R IC50 (nM) [Assay (II)(a)]
Method in brief: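 Membranes from BHK cells (clone FCW467-12A) stably expressing human GLP-1R were incubated with serially diluted compounds (8×10EE-13 to 8×10EE-7 M before addition) and [125I]-GLP-1-(7-36)NH2 with WGA SPA beads, 2 h at 30° C, pH 7.4. IC50 taken from displacement by non-linear regression. Run at ≤0.001% or 2.0% final serum albumin.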

IC50: 0.3 nM
Structure (SMILES): CC[C@H](C)[C@H](NC(=O)[C@H](CC(C)C)NC(=O)[C@H](Cc1c[nH]c2ccccc12)NC(=O)[C@H](CCC(N)=O)NC(=O)[C@@H](NC(=O)[C@H](Cc1ccccc1)NC(=O)[C@H](CCC(=O)O)NC(=O)[C@H](CCC(N)=O)NC(=O)[C@H](C)NC(=O)[C@H](CCCNC(=N)N)NC(=O)[C@H](CCCNC(=N)N)NC(=O)[C@H](CO)NC(=O)[C@H](CCC(=O)O)NC(=O)[C@H](CC(C)C)NC(=O)[C@H](Cc1ccc(O)cc1)NC(=O)[C@H](CCCCN)NC(=O)[C@H](CO)NC(=O)[C@H](CC(C)C)NC(=O)[C@H](CC(=O)O)NC(=O)[C@H](CO)NC(=O)[C@@H](NC(=O)[C@H](Cc1ccccc1)NC(=O)[C@@H](NC(=O)CNC(=O)[C@H](CCC(N)=O)NC(=O)C1(NC(=O)[C@@H](N)Cc2c[nH]cn2)CCC1)[C@@H](C)O)[C@@H](C)O)C(C)C)C(=O)N[C@@H](CCCCNC(=O)CC[C@H](NC(=O)COCCOCCNC(=O)COCCOCCNC(=O)CC[C@H](NC(=O)CC[C@H](NC(=O)CCCCCCCCCCCCCCCCC(=O)O)C(=O)O)C(=O)O)C(=O)O)C(=O)N[C@H](C(N)=O)[C@@H](C)O [Chem. 38, N^ε28-[(4S)-4-carboxy-4-[[2-[2-[2-[[2-[2-[2-[[(4S)-4-carboxy-4-[[(4S)-4-carboxy-4-(17-carboxyheptadecanoylamino)butanoyl]amino]butanoyl]amino]ethoxy]ethoxy]acetyl]amino]ethoxy]ethoxy]acetyl]amino]butanoyl]-[Acb2,Leu10,Glu15,Glu21,Ile27,Lys28]-Glucagon amide] (H-H[Ac4c]QGTFTSDLSKYLESRRAQEFVQWLIK([γGlu-AEEA-AEEA-γGlu-γGlu-C18 diacid])T-NH2; N-terminus assumed)
